Experiments:
[1] = Particle size distribution of histidine hydrochloride monohydrate crystals by sieving; assay type: physicochemical
From the text: Histidine hydrochloride monohydrate crystals were sieved on Ro Tap equipment using a stack of US Mesh sieves to obtain a fraction ranging from 850 microns (20 US Mesh) to 250 microns (60 US Mesh) particle size. The fraction was chosen to remove very fine particles, which present a challenge to optimal microencapsulation.

[2] = Methionine pellet pH test; assay type: physicochemical; details: 2 hours at 39° C.
Protocol: The pellets were then incubated in a pH 2.0 buffer and a pH 7.0 buffer for 2 hours at 39° C. For comparison, pellets consisting of methionine were also incubated in the buffer solutions. The results are shown in FIG. 10 and in Table 26 below.

Row | Structure (SMILES) | Difference ([1]; Pan, opening size <106 micron) [g] | Final (wt % of total output) ([1]; Pan, opening size <106 micron) | Final (wt % of total output) ([1]; US mesh sieve #20, opening size 850 micron) | Final (wt % of total output) ([1]; US mesh sieve #40, opening size 425 micron) | Final (wt % of total output) ([1]; US mesh sieve #60, opening size 250 micron) | Final (wt % of total output) ([1]; US mesh sieve #80, opening size 180 micron) | Final (wt % of total output) ([1]; US mesh sieve #100, opening size 150 micron) | Final (wt % of total output) ([1]; US mesh sieve #140, opening size 106 micron) | Difference ([1]; retained on US mesh sieve #20, opening size 850 micron) [g] | Difference ([1]; retained on US mesh sieve #40, opening size 425 micron) [g] | Difference ([1]; retained on US mesh sieve #60, opening size 250 micron) [g] | Difference ([1]; retained on US mesh sieve #80, opening size 180 micron) [g] | Difference ([1]; retained on US mesh sieve #100, opening size 150 micron) [g] | Difference ([1]; retained on US mesh sieve #140, opening size 106 micron) [g] | wt % Release ([2]; 0.01M Acid Buffer, pH 2.00) [wt %] | wt % Release ([2]; 0.05M Phosphate Buffer, pH 7.00) [wt %]
1 | Cl.N[C@@H](Cc1cnc[nH]1)C(=O)O.O | 7.41 | 7.4 wt % of total output | 2.6 wt % of total output | 34.8 wt % of total output | 33.9 wt % of total output | 11.9 wt % of total output | 5.3 wt % of total output | 4.1 wt % of total output | 2.60 | 34.87 | 33.99 | 11.88 | 5.35 | 4.09 | – | –
2 | CSCC[C@H](N)C(=O)O [Met Reference Standard (99.9% purity)] | – | – | – | – | – | – | – | – | – | – | – | – | – | – | 99 | 99

— US20240226045A9, “RUMEN-PROTECTED COMPOSITIONS AND METHODS OF MAKING THE SAME” (Balchem Corporation, priority 2022, published 2024)
